For the experiment, the target named is T1, Sortase A (SrtA) (Staphylococcus aureus, UniProt Q2FV99).
T1 construct: SrtAΔN59
Nature of the experiment: FRET peptide cleavage assay (Dabcyl-QALPETGEE-Edans) with purified SrtAΔN59, […] CaCl2 in the buffer. The format is biochemical.

T1 sequence (Q2FV99 60-206): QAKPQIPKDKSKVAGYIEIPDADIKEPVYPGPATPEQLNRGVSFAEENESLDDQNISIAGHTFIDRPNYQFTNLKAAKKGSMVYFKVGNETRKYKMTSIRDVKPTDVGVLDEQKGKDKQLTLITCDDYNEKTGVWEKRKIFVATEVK

The compound `COc1ccc(-c2cc(=O)c3c(O)cc(O)cc3o2)cc1` [acacetin, 5,7-dihydroxy-2-(4-methoxyphenyl)chromen-4-one] had an IC50 of 128 µM.

By IC50 is commonly meant the point on the concentration scale where inhibition reaches its midpoint. The low end stands for greater potency in that assay, the high end for weaker potency in that assay.

The record behind these values is paper PMC6272931, “Acacetin Protects Mice from Staphylococcus aureus Bloodstream Infection by Inhibiting the Activity of Sortase A” (Molecules, 2016).
